Holding throughout (assay type): cell-based
In one assay the target is T1, farnesyl transferase (Homo sapiens, UniProt P49354+P49356).
T1 construct: endogenous in cells; host or cells: K562 cells transduced with LNC-EGFP-RasF reporter
The assay is described as follows: Farnesyl transferase inhibition assay (EGFP-RasF membrane localization by fluorescence microscopy). How it is done:
The idea was to target EGFP to the plasma membrane by using a farnesylation signal sequence. […] The last 20 amino acids of c-Ha-Ras provides farnesylation and palmitoylation for targeting the Ras protein to the plasma membrane. We fused the C-terminal membrane targeting signal sequence of the human c-Ha-ras1 (J00277, NCBI) to the C-terminal end of EGFP (Clontech).
Twenty amino acids of the C-terminal end of c-Ha-ras 1 located in exon 4 were added to the C-terminus of the EGFP coding sequence by polymerase chain reaction (PCR) cloning.
The amphotropic packaging cell line PT67 (Clontech) was transfected (Pfx-2, Invitrogen) with pLNC-EGFP-(DEVD)-RasF and selected in 400 μg/ml G418. […] Gene transfer referred to as transduction in K562 and MT4 cells was easily observed by fluorescence microscopy.
(§1) K562 (MT4) cells were separated from PT67-pLNC-EGFP-(DEVD)-RasF and Non transduced K562 (MT4) cells were removed by selection in 400 μg/ml G418. The remaining fluorescent K562 (MT4) cells were directly cloned in 96 well plates by fluorescence activated cell sorting using an automatic cell deposit unit. […] Two weeks later, appropriate clones were selected by visual inspection using a fluorescence microscope and designated K562-LNC-EGFP-RasF or MT4-LNC-EGFP-(DEVD)-RasF. […]
In cells expressing EGFP without a farnesylation signal sequence, fluorescence is observed throughout the cell. […]

The next assay deals with MT4-LNC-EGFP-RasF cells. The assay is described as follows: Control without DEVD cleavage site (EGFP-RasF membrane targeting by fluorescence microscopy). As to conditions: 4 h, FIG. 4B. How it is done: The amphotropic packaging cell line PT67 (Clontech) was transfected (Pfx-2, Invitrogen) with pLNC-EGFP-(DEVD)-RasF and selected in 400 μg/ml G418. In the surviving colonies, transcription occurs from (a) stably integrated plasmid(s) pLNC-EGFP-(DEVD)RasF. The resulting LNC-EGFP-(DEVD)-RasF mRNA is translated into EGFP-(DEVD)-RasF and the neomycin resistance protein and is also packaged into replication incompetent virions. Thus, the PT67-pLNC-EGFP-(DEVD)-RasF constitutively produces viral particles, able to transmit the EGFP-(DEVD)-RasF and the neomycin resistance gene at the same time. These amphotropic virions give the flexibility to rapidly develop novel cell lines stably expressing EGFP-(DEVD)-RasF proteins. […] Gene transfer referred to as transduction in K562 and MT4 cells was easily observed by fluorescence microscopy.
as §1

The test system of the next assay is caspase 3. The assay is described as follows: Caspase 3 activity with fluorogenic Ac-DEVD-AMC substrate. To be noted: MT4 cells, Ac(N-acetyl)-DEVD-AMC substrate, results not shown.
Assay [1] has as its system caspase 3 and/or caspase 7. The assay is described as follows: Caspase assay (EGFP-DEVD-RasF membrane targeting by fluorescence microscopy). As to conditions: MT4-LNC-EGFP-DEVD-RasF cells, 10 μM, 4 h, FIG. 3B. How it is done:
For the apoptosis construct, the same primer was used except that a sequence encoding DEVD (i.e. caspase 3 and 7 cleavage site) was included between EGFP and the Ras plasmamembrane targeting signal sequence (SEQ ID NO 4 and SEQ ID NO 5).
The amphotropic packaging cell line PT67 (Clontech) was transfected (Pfx-2, Invitrogen) with pLNC-EGFP-(DEVD)-RasF and selected in 400 μg/ml G418. In the surviving colonies, transcription occurs from (a) stably integrated plasmid(s) pLNC-EGFP-(DEVD)RasF. The resulting LNC-EGFP-(DEVD)-RasF mRNA is translated into EGFP-(DEVD)-RasF and the neomycin resistance protein and is also packaged into replication incompetent virions. […] Gene transfer referred to as transduction in K562 and MT4 cells was easily observed by fluorescence microscopy.
as §1

“Also recorded” adds a separate entry of the source.

`CSCC[C@H](NC(=O)c1ccc(NC[C@@H](N)CS)cc1-c1ccccc1)C(=O)O` [FTI-276]: on farnesyl transferase (K562 LNC-EGFP-RasF cells, 5 μM, FIG. 2), the EGFP membrane localization entry is “disruption of membrane localization”. The EGFP compartmentalisation entry on farnesyl transferase (K562 cells, high enough concentrations (>5 μM)) is given as “almost completely disappears”.

In the case of `CN[C@@H]1C[C@H]2O[C@@](C)([C@@H]1OC)n1c3ccccc3c3c4c(c5c6ccccc6n2c5c31)C(=O)NC4` [staurosporin], the “translocation of EGFP” value in the assay with MT4-LNC-EGFP-RasF cells (MT4-LNC-EGFP-RasF cells lacking DEVD site) is recorded as “no prominent translocation of EGFP occurs; also recorded: did not result in marked translocation of EGFP”. For the same molecule, in the assay on MT4-LNC-EGFP-RasF cells (MT4-LNC-EGFP-RasF cells), the cell morphology entry is reported as “affects the cells morphology within hours; also recorded: altered cell morphology”. Also, the “caspase 3 activity” value in the assay on caspase 3 was “induced caspase 3 activity”. Besides, the EGFP membrane targeting result in assay [1] is on record as “partially disappears; also recorded: reduced EGFP membrane targeting”.

Source of the values: patent publication US7129036B1, “Reporter molecules and methods for assaying the lipidations status of a cell” (Tibotec BVBA, priority 1999, dated 2006).
